According to patent US6245791A (Aventis Pharma S.A., priority 1998, dated 2001):

Tested on: glutamate uptake in synaptosomes of rat cerebellum
Protocol: The increase in glutamate uptake is evaluated in a suspension of synaptosomes prepared from rat cerebellar cells.
The synaptosomes were prepared according to a modification of the method described by Robinson, M. B., et al., (Brain Res., 544: 196-202, 1991). The tissues of cerebellum or of other regions of the brain of male rats of the Sprague-Dawley breed are homogenized in a sucrose solution (0.32 M) at 4° C. and then centrifuged at 800 g for 10 minutes. The supernatant is then recentrifuged at 20,000 g for 20 minutes. The centrifugation pellet obtained is resuspended in an identical sucrose solution and then centrifuged again at 20,000 g for 20 minutes. The synaptosomes are contained in this second centrifugation pellet. They are suspended and used immediately for measuring glutamate uptake. This is monitored with the aid of tritium-labelled glutamate ([^3 H]glutamate) diluted in a solution of nonradioactive glutamate. After 3 minutes of incubation at 37° C., the synaptosomes are separated from the incubation medium by filtration. […] This radioactivity is proportional to the glutamate uptake. The results are expressed as specific uptake, that is to say the uptake which depends on the presence of sodium ions in the incubation medium. It can be distinguished from the nonspecific uptake which corresponds to the radioactivity measured after equimolar replacement of sodium chloride in the incubation medium with choline chloride. The specific uptake corresponds to the total radioactivity minus the radioactivity measured in the presence of choline chloride.
The data are the mean values±SEM of n=8 independent observations.

Structure (SMILES): Nc1nc2ccc(OC(F)(F)F)cc2s1 [riluzole, 2-amino-6-trifluoromethoxybenzothiazole]
- dependence of the increase in glutamate uptake on the age of the rats (cerebellum, postnatal period to adult age, stable after about 10 weeks): increases with the age of the rats
- uptake of radioactive glutamate (result in words) (rat cerebellar synaptosomes, increasing concentrations of riluzole (FIG. 1)): increased in a concentration-dependent manner
- maximum increase in glutamate uptake (rat cerebellar synaptosomes, specific uptake, n=8, 3 min): ~40 % of the control values
